Data from PubChem BioAssay AID743341 (Broad Institute, 2014).
Results filed as inconclusive are left out. Active and inactive are the calls of the source.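 How the source made its calls: active means fitted curve of myotube length rescue reaches 40% at or below the top valid tested dose in every replicate test; inconclusive means replicate tests give mixed outcomes; inactive means every replicate test inactive, including effects in the opposite direction.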

Experiment: rescue of myotube length under simvastatin, confirmation, orthogonal assay for statin myotoxicity suppressor project, imaging, C2C12 myotubes, MHC immunostaining, dry powder (AID 743341)
Conditions: C2C12 myotubes + simvastatin, MHC imaging tube length, 48 h

Row | Structure (SMILES) | rescue of myotube length (at 19.5 µM (top of the series)) | also measured
1 | C[C@H](CO)N1C[C@H](C)[C@@H](CN(C)Cc2ccc(Cl)c(Cl)c2)Oc2ccc(NC(=O)C3CC3)cc2CC1=O | -6.48% (inactive) | 
2 | N#C[C@@H]1[C@H](c2ccc(-c3cccc(F)c3)cc2)[C@@H](CO)N1C(=O)NC1CCCC1 | 12.9% (inactive) | 
3 | N#C[C@H]1[C@H](c2ccc(C#CCC3CCCC3)cc2)[C@@H](CO)N1C(=O)CN1CCOCC1 | 14.6% (inactive) | 
4 | N#C[C@@H]1[C@@H](c2ccccc2-c2cccc(F)c2)[C@H](CO)N1C(=O)NC1CCCC1 | 10.7% (inactive) | 
5 | C[C@H]1CN([C@@H](C)CO)C(=O)Cc2cc(NC(=O)CCCCCC(=O)Nc3ccccc3N)ccc2O[C@H]1CN(C)Cc1ccccc1 |  | rescue of myotube length (at 18 µM (top of the series)): 21.7% (inactive)
6 | C[C@H](CO)N1C[C@H](C)[C@H](CN(C)Cc2ccc3c(c2)OCO3)Oc2ccc(NC(=O)CCCCCC(=O)Nc3ccccc3N)cc2CC1=O |  | rescue of myotube length (at 18 µM (top of the series)): 19.7% (inactive)
7 | O=C(C[C@H]1CC[C@@H]2[C@H](COC[C@@H](O)CN2Cc2ccc(Oc3ccccc3)cc2)O1)N1CCCCC1 | 15.6% (inactive) | 
8 | COc1ccc(C#Cc2cnc3c(c2)C(=O)N([C@H](C)CO)C[C@H](C)[C@H](CN(C)Cc2ccccc2)O3)cc1OC | -10.4% (inactive) | 
9 | CCCC#Cc1ccc([C@H]2[C@@H](C#N)N(S(=O)(=O)c3cccc(F)c3)[C@H]2CO)cc1 | 4.16% (inactive) | 
10 | C[C@H]1CN([C@@H](C)CO)C(=O)Cc2cc(NS(=O)(=O)c3ccc(Cl)cc3)ccc2O[C@@H]1CN(C)CC1CCCCC1 |  | rescue of myotube length (at 21 µM (top of the series)): -32.7% (inactive)
11 | Cc1ccc(S(=O)(=O)Nc2ccc3c(c2)CC(=O)N([C@@H](C)CO)C[C@@H](C)[C@H](CN(C)Cc2ccc(-c4ccccc4)cc2)O3)cc1 | -2.54% (inactive) | 
12 | N#C[C@H]1[C@@H](c2ccc(-c3cccc(F)c3)cc2)[C@H](CO)N1C(=O)NC1CCCC1 | 8.46% (inactive) | 
13 | N#C[C@H]1[C@H](c2ccc(-c3cccc(F)c3)cc2)[C@H](CO)N1C(=O)NC1CCCC1 | 14.9% (inactive) | 
14 | C[C@@H]1CN([C@@H](C)CO)C(=O)c2cc(NC(=O)Nc3cccc4ccccc34)ccc2O[C@@H]1CN(C)Cc1ccc(C(=O)Nc2ccccc2N)cc1 |  | rescue of myotube length (at 21 µM (top of the series)): 20.8% (inactive)
15 | C/C=C/c1ccc([C@H]2[C@@H](CO)N(C(=O)NC3CCCC3)[C@H]2C#N)cc1 | 12.4% (inactive) | 
16 | COc1ccc(CN(C)C[C@H]2Oc3ccc(NS(=O)(=O)c4ccc(Cl)cc4)cc3CC(=O)N([C@@H](C)CO)C[C@@H]2C)cc1 | -19% (inactive) | 
17 | COc1ccc(C#Cc2cnc3c(c2)C(=O)N([C@H](C)CO)C[C@H](C)[C@@H](CN(C)C(=O)Nc2cccc(OC)c2)O3)cc1 | 30.4% (inactive) | 
18 | N#C[C@@H]1[C@@H](c2ccc(-c3cccc(F)c3)cc2)[C@@H](CO)N1C(=O)NC1CCCC1 | 3.2% (inactive) | 
19 | O=C(C[C@H]1CC[C@@H]2[C@H](COC[C@H](O)CN2CCC(F)(F)F)O1)NCc1ccc(Oc2ccccc2)cc1 | 5.97% (inactive) | 
20 | Cc1noc(C)c1S(=O)(=O)Nc1ccc2c(c1)CC(=O)N([C@H](C)CO)C[C@H](C)[C@@H](CN(C)Cc1ccc(C(F)(F)F)cc1)O2 | -1.01% (inactive) | 
21 | N#C[C@@H]1[C@@H](c2ccc(C3=CCCCC3)cc2)[C@H](CO)N1C(=O)NC1CCCC1 | 9.82% (inactive) | 
22 | N#C[C@@H]1[C@@H](c2ccccc2-c2ccc(F)cc2)[C@H](CO)N1C(=O)NC1CCCC1 | 15.4% (inactive) | 
23 | COc1ccc(S(=O)(=O)Nc2cccc3c2O[C@H](CN(C)C(=O)Nc2ccc(F)cc2)[C@H](C)CN([C@@H](C)CO)C3=O)cc1 | -2.59% (inactive) | 

Row | Structure (SMILES) | rescue of myotube length (at 19.5 µM (top of the series)) | also measured
24 | C[C@@H]1CN([C@H](C)CO)C(=O)Cc2cc(NC(=O)CCCCCC(=O)Nc3ccccc3N)ccc2O[C@@H]1CN(C)Cc1ccc(Oc2ccccc2)cc1 | -9.32% (inactive) | 
25 | CN(C)C(=O)c1cccc(-c2ccc([C@@H]3[C@@H](C#N)N(C(=O)C4CCCC4)[C@@H]3CO)cc2)c1 | 13.3% (inactive) | 
26 | N#C[C@@H]1[C@@H](c2ccccc2)[C@H](CO)N1S(=O)(=O)c1ccc(-c2ccccc2)cc1 |  | rescue of myotube length (at 21 µM (top of the series)): 13.9% (inactive)
27 | COc1ccc(S(=O)(=O)N(C)C[C@H]2Oc3c(NC(=O)Nc4ccccc4)cccc3C(=O)N([C@H](C)CO)C[C@H]2C)cc1 | 3.68% (inactive) | 
28 | CCCNC(=O)N1[C@H](CO)[C@H](c2ccccc2)[C@@H]1C#N | 1.19% (inactive) | 
29 | N#C[C@@H]1[C@@H](c2ccc(C#CC3CCCC3)cc2)[C@H](CO)N1S(=O)(=O)c1ccccc1 |  | rescue of myotube length (at 21 µM (top of the series)): 4.55% (inactive)
30 | C[C@H]1CN([C@@H](C)CO)C(=O)c2cc(NC(=O)Nc3cccc4ccccc34)ccc2O[C@H]1CN(C)Cc1ccc(C(=O)Nc2ccccc2N)cc1 | 13.4% (inactive) | 
31 | C[C@@H]1CN([C@H](C)CO)C(=O)Cc2cc(NS(=O)(=O)c3cn(C)cn3)ccc2O[C@@H]1CN(C)Cc1ccc(Cl)c(Cl)c1 | 24% (inactive) | 
32 | Cc1ccc(S(=O)(=O)N(C)C[C@@H]2Oc3ccc(NS(=O)(=O)c4ccc(Cl)cc4)cc3C(=O)N([C@H](C)CO)C[C@@H]2C)cc1 | 3.15% (inactive) | 
33 | CC(C)CC#Cc1cnc2c(c1)C(=O)N([C@H](C)CO)C[C@H](C)[C@@H](CN(C)C(=O)Cc1ccccc1)O2 |  | rescue of myotube length (at 21 µM (top of the series)): -0.121% (inactive)
34 | N#C[C@H]1[C@H](c2ccc(C#Cc3ccc(F)cc3)cc2)[C@H](CO)N1c1nc(-c2ccccc2)cs1 | 25.1% (inactive) | 
35 | COc1ccc(S(=O)(=O)Nc2ccc3c(c2)CC(=O)N([C@H](C)CO)C[C@@H](C)[C@H](CN(C)CC2CCCCC2)O3)cc1 | -8.93% (inactive) | 
36 | C[C@@H]1CN([C@@H](C)CO)C(=O)c2cc(NS(=O)(=O)c3ccc(Cl)cc3)ccc2O[C@H]1CN(C)C(=O)Nc1cccc2ccccc12 | -1.68% (inactive) | 
37 | COCC(=O)N1[C@H](C#N)[C@@H](c2ccc(-c3cccc(F)c3)cc2)[C@@H]1CO |  | rescue of myotube length (at 21 µM (top of the series)): 4.32% (inactive)
38 | CCS(=O)(=O)N1[C@H](C#N)[C@@H](c2ccc(-c3cccc(F)c3)cc2)[C@@H]1CO |  | rescue of myotube length (at 21 µM (top of the series)): 16.6% (inactive)
39 | CCCNC(=O)N1[C@@H](C#N)[C@@H](c2ccc(-c3ccccc3F)cc2)[C@@H]1CO |  | rescue of myotube length (at 21 µM (top of the series)): -2.07% (inactive)
40 | CCCNC(=O)N1[C@H](C#N)[C@@H](c2ccc(C3=CCCCC3)cc2)[C@@H]1CO | 22.8% (inactive) | 
41 | N#C[C@@H]1[C@@H](c2ccc(C#Cc3cccnc3)cc2)[C@@H](CO)N1C(=O)C1CCCC1 | 5.74% (inactive) | 
42 | N#C[C@@H]1[C@@H](c2ccc(-c3cccc(F)c3)cc2)[C@H](CO)N1C(=O)c1cccnc1 | 12.6% (inactive) | 
43 | N#C[C@H]1N[C@@H](CO)[C@@H]1c1ccc(-c2cccc(F)c2)cc1 |  | rescue of myotube length (at 21 µM (top of the series)): 8.43% (inactive)
44 | C[C@@H]1CN([C@@H](C)CO)C(=O)Cc2cc(NC(=O)CCCCCC(=O)Nc3ccccc3N)ccc2O[C@@H]1CN(C)Cc1ccc(Oc2ccccc2)cc1 |  | rescue of myotube length (at 21 µM (top of the series)): -5.63% (inactive)
45 | CN1C(=O)c2cc(NC(=O)c3ccc(F)c(F)c3)ccc2OC[C@H]2O[C@@H](CC(=O)Nc3ccc4c(c3)COC4)CC[C@@H]21 | 12.6% (inactive) | 
46 | N#C[C@H]1[C@@H](c2ccc(-c3cccc(F)c3)cc2)[C@@H](CO)N1C(=O)NC1CCCC1 | -4.89% (inactive) | 
